{
  "source": "patent US10265303B2",
  "about": "“Hyperphenylalaninemia and treatments thereof” (BERGEN TEKNOLOGIOVERFØRING AS, priority 2015, dated 2019)",
  "key": {"R261Q-PAH": {"molecular_target": "T1, R261Q-PAH (Homo sapiens, UniProt P00439, R261Q)", "T1 construct": "expressed in transfected cells; host or cells: HEK293 EBNA, transient, pcDNA3-PAH", "T1 sequence (P00439 1-452 R261Q)": "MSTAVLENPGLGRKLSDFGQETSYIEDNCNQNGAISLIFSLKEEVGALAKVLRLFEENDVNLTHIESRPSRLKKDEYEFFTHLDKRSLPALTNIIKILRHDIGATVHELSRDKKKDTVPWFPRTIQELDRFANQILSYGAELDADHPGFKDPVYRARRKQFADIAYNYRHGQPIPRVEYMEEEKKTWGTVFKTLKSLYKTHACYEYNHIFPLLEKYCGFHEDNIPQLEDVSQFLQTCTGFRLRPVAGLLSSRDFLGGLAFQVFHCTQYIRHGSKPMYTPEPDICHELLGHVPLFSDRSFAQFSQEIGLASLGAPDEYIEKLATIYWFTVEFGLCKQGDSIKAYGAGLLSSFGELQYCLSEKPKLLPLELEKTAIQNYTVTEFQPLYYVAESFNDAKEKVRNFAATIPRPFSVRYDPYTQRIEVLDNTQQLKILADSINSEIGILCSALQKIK", "assay": "PAH protein level and activity in HEK293 EBNA cells transiently expressing PKU mutant R261Q", "assay_type": "cell-based", "conditions": "24 h", "description": "Cell lysates were prepared as indicated above."}, "R252W-PAH": {"molecular_target": "T2, R252W-PAH (Homo sapiens, UniProt P00439, R252W)", "T2 construct": "expressed in transfected cells; host or cells: HEK293 EBNA, transient, pcDNA3-PAH", "T2 sequence (P00439 1-452 R252W)": "T1 sequence (P00439 1-452 R261Q) with R252W, Q261R", "assay": "PAH protein level and activity in HEK293 EBNA cells transiently expressing PKU mutant R252W", "assay_type": "cell-based", "description": "A similar assay was used to measure PAH activity in cells lysates using 1 mM L-Phe and 200 μM BH4 with 10 min reactions and about 20-90 μg of total protein. Free amino acids and contaminants of low molecular weight were previously removed from the extracts using Zebra Desalt Spin columns (Pierce Biotechnology).\nFor transient expression of WT and mutant PAH, HEK293 EBNA (Epstein-Barr virus) cells, with low endogenous PAH expression, were grown as above. Cells were grown for 19 h, when they were transfected transiently transfected with […] of pcDNA3-PAH vector (WT or mutant PAH constructs R261Q, R252W, I65T and R68S) using the Lipofectamine system (Life Technologies™) as described by the manufacturer. Compound 53, with and without BH2 (200 μM) was added after 5 h of transfection at 200 μM concentration in 1% DMSO, and further incubated for 24 h, at which time the cells were harvested and stored at −80° C. In all cases a parallel negative control with only 1% DMSO was included. Cell lysates were prepared as indicated above.\nWestern blot analyses were performed on either cell extracts from permanently expressing or transiently transfected HEK293 cell lysates after SDS-PAGE (10% acrylamide) with 5-10 μg total protein in each lane. […] Neomycin phosphotransferase II was used as a marker of the plasmid transfection efficiency, and GAPDH was used as loading controls. […]"}},
  "note": "Residue numbers refer to the chain shown, from its start.",
  "data": [
    {"smiles": "COc1cc(Cc2cnc(N)nc2N)cc(OC)c1OC", "note": "[c53, trimethoprim]", "values": [
      {"measurement": "protein and activity, mutant R261Q, Compound 53 and BH2 together", "setting": "R261Q-PAH; 200 μM each", "result": "trends for additive effects"},
      {"measurement": "PAH activity, mutant R261Q", "setting": "R261Q-PAH; 200 μM, 1% DMSO", "result": "greatly increased"},
      {"measurement": "hPAH protein level, mutant R261Q", "setting": "R261Q-PAH; 200 μM, 1% DMSO", "result": "greatly increased"},
      {"measurement": "effect on mutant R252W (protein, activity)", "setting": "R252W-PAH; 200 μM alone, 24 h, 1% DMSO", "result": "neither the compound or BH4 affected"},
      {"measurement": "protein content, mutant R252W, compound and cofactor analogue together", "setting": "R252W-PAH; Compound 53 200 μM plus BH2 200 μM, 24 h (FIG. 2D)", "result": "a little stimulation of the protein content"}
    ]}
  ]
}
